Experiments:
[1] = system: Wild-type C57BL/6 male mice; experiment: Acute injection, in vivo cardiac hemodynamics (pressure-volume analysis) in wild-type mice; conditions: acute injection via femoral vein, 1.5 μg/kg; compared to mice injected with saline
Text: (§1) Cardiac pressure-volume analysis. Hemodynamic, systolic, and diastolic measurements performed as previously done. Briefly, mice were anesthetized with 1% isoflurane and a 1.4 F Millar catheter was advanced from the carotid artery into the left ventricle. LV pressure-volume dynamics were simultaneously measured over a wide range of heart rates (240-600 bpm). For the TNT experiments, since there were different baseline heart rates, data was normalized to the lowest heart rate. For the acute injection experiments, 12,13-diHOME, 9,10-diHOME, or 9-HODE were infused through the femoral vein (all at 1.5 μg/kg). All pressure-volume loop parameters were calculated using PV loop analysis software module for Lab Chart on ADInstruments.
Both +BAT and exercise improved cardiac function in mice and increased circulating 12,13-diHOME. To determine if 12,13-diHOME was responsible for the improved cardiac function in +BAT and exercise-trained mice, mice were acutely injected with 12,13-diHOME and in vivo cardiac hemodynamics were measured. Acute treatment of 12,13-diHOME improved systolic function (FIG. 3A; FIG. 8A) and diastolic function (FIG. 3B; FIG. 8B) compared to mice injected with saline. There was no effect of 9,10-diHOME or 9-HODE to alter systolic (FIG. 3A; FIG. 8A) or diastolic function (FIG. 3B; FIG. 8B).

NOS1^−/− mice = experiment: Acute injection of 12,13-diHOME, in vivo cardiac hemodynamics in NOS1−/− mice
Text: as §1
Next, the mechanism through which 12,13-diHOME modulates cardiomyocyte function and respiration was investigated. It was shown that nitric oxide (NO) production via NO synthase type 1 (NOS1) is essential for the beneficial effects of exercise to the heart. Since +BAT had similar effects on the heart as exercise, 12,13-diHOME can function through a similar mechanism. Mice deficient in NOS1 (NOS1^−/−) were acutely injected with 12,13-diHOME and in vivo cardiac hemodynamics were measured. […] In addition, 12,13-diHOME had no effect on NOS1^−/− cardiomyocyte peak shortening, Ca^2+ transients, or kinetics (FIGS. 5C-5F).

isolated cardiomyocytes [2] = experiment: Cardiomyocyte sarcomere function and calcium transient, wild-type cardiomyocytes; format: cell-based, mice; conditions: acute superfusion of 10 μM; vs vehicle
Protocol: (§2) Measurements of Cardiomyocyte Sarcomere Function and Calcium Transient. Cardiomyocytes were isolated from wild-type C57BL/6 male mice (Charles River) or NOS1^−/− mice (B6; 129S4-Nos1^tm1Plh/J; stock no. 002633; Jackson Labs). Unloaded cardiomyocyte function (sarcomere shortening, kinetics and Ca^2+ transients) were measured as previously performed. In brief, hearts were rapidly excised and cannulated on a constant-flow Langendorff perfusion apparatus, and perfused via the aorta at 37° C. with buffer containing (in mM) 113 NaCl, 4.7 KCl, 0.6 KH2PO4, 0.6 Na2HPO4, 1.2 MgSO4, 12.4 BMD, 12 NaHCO3, 10 KHCO3, 10 HEPES 1M, and 30 Taurine, followed by digestion with liberase enzyme (0.25 mg/ml). After perfusion and digestion ventricles were removed and minced (under sterile conditions), filtered, and equilibrated with 1 mM CaCl2 and FBS at room temperature. Cardiomyocytes were plated on laminin-coated glass slides and placed on the stage of an inverted Olympus IX-71 microscope and superfused (˜1 ml/min at 30° C.) with contractile buffer containing (in mM, pH 7.4) 4 KCl, 131 NaCl, 1 MgCl2, 10 HEPES, 1 CaCl2), and 10 glucose. The cells were visualized using a 40× objective and field-stimulated at 1 Hz for 3 ms using a Myopacer Field-Stimulator system. Sarcomere length, time to contraction/relaxation and contraction/relaxation kinetics will were recorded using the IonOptix video imaging system and a Myocam-S Digital charge-coupled device camera. Changes in intracellular Ca^2+ levels were monitored using (0.5 μM) Fura-2 dual-excitation (360/380 nm) single emission (510 nm) ratiometric imaging. Measurements were taken at baseline and with acute superfusion of 10 μM 12,13-diHOME.

NOS1^−/− cardiomyocyte = experiment: Cardiomyocyte sarcomere function and calcium transient, NOS1−/− cardiomyocytes; format: cell-based, mice; conditions: vs PBS
Protocol: as §2

[3] = system: cardiomyocytes constitutively expressing luciferase; experiment: Cardiomyocyte fatty acid uptake (FFA-SS-Luc); format: cell-based, mice; conditions: 10 μM, 10 μM FFA-SS-Luc, after 30 min of incubation; vs vehicle
Protocol: Cardiomyocyte Fatty Acid Uptake. Cardiomyocytes were isolated from 12-24 week old male LucTg (FVB-Tg(CAG-luc-GFP)L2G85Chco/J; stock no. 008450; Jackson Labs) chow-fed mice. Isolated cardiomyocytes (50,000 cells per well) were seeded onto laminin-coated 12-well plates according to standard protocols in FBS-free media for one hour. After one hour of serum-starve, 10 μm FFA-SS-Luc (Intrace Medical) conjugated probe was added to each well with or without 10 μM 12,13-diHOME directly before imaging using the IVIS Spectrum for […] optical imaging using sequential 3 min exposures for 30 min. Data were analyzed using Living Image Software, and movies were assembled from individual images using ImageJ.
Previous studies have indicated a role for 12,13-diHOME to increase fatty acid uptake. To test whether 12,13-diHOME increases fatty acid uptake in cardiomyocytes, cardiomyocytes constitutively expressing luciferase in vitro were isolated. Cells were treated with FFA-SS Luc, a fatty acid conjugated to luciferin, in the presence of 12,13-diHOME or a vehicle control.

isolated cardiomyocytes [4] = experiment: Seahorse bioanalyzer respiration, wild-type cardiomyocytes; format: cell-based, mice
Protocol: (§3) Seahorse bioanalyzer. Cardiomyocytes were isolated from 12-24 week old male C57BL/6 male (Charles river) or NOS1^−/− mice (B6; 129S4-Nos1^tm1Pth/J; stock no. 002633; Jackson Labs), chow fed mice. Isolated cardiomyocytes (25,000 per well) were seeded onto laminin-coated Seahorse Plates (Agilent) according to standard protocols. Cells were treated for 1 h with 10 μM 12,13-diHOME or were untreated. The oxygen-consumption rates (OCR; indicating mitochondrial respiration) and extracellular acidification rates (ECAR; indicating glycolysis rate) were monitored in a Seahorse XF24 instrument using the standard protocol of 3-min mix, 2-min wait and 3-min measure. Carbonyl cyanide-p-trifluoromethoxy-phenyl-hydrazon (FCCP; 2 μM) was used to determine the cells maximal respiratory capacity by allowing the electron transport chain to function at its maximal rate (maximal respiratory capacity is derived by subtracting non-mitochondrial respiration from the FCCP rate). Oligomycin (a complex V inhibitor; 2 μM) was used to derive ATP-linked respiration (by subtracting the oligomycin rate from baseline cellular OCR) and proton leak respiration (by subtracting non-mitochondrial respiration from the oligomycin rate). AntimycinA/Roteone (mitochondrial inhibitors; 0.5 μM) was used to determine non-mitochondrial respiration. For mechanistic experiments, cells were treated for 1 h with tetracaine (specific RyR inhibitor; 1 mM), 2,3-butanedione monoxime (BDM; myosin-ATPase inhibitor; […]) and nifedipine (L-type calcium channel inhibitor; 10 μM) were used. Data from wells of the same treatment group were averaged together and analyzed directly using Waves software. For the normalization of respiration to protein content, cells were lysed in RIPA buffer and protein concentration was measured by Bradford assay.

NOS1^−/− cardiomyocytes = experiment: Seahorse bioanalyzer respiration, NOS1−/− cardiomyocytes; format: cell-based, mice; conditions: vs vehicle
Protocol: as §3

Sham or +BAT mice = experiment: Oral gavage of sEH inhibitors in Sham or +BAT mice, in vivo cardiac hemodynamics; conditions: daily oral gavage 0.5 mg/kg for 2 weeks, starting 10 weeks after surgery
Protocol: Oral gavage of sEH inhibitors. C57BL/6 male mice (Charles River Laboratories) were fed a normal chow diet before and throughout the experiment. Sham and +BAT mice underwent daily oral gavage of sEH inhibitors beginning 10 weeks after the transplant or sham surgery. Mice underwent daily oral gavage with vehicle (Phosphate Buffer Saline [PBS]), or 25 mg/L AUDA in PBS (Cayman Chemicals #10007927), or 50 mg/L t-AUCB in PBS (Cayman Chemicals #16568). Mice were gavaged at 0.5 mg/kg daily for 14-16 days.
as §1, with “ADInstruments. […]” for “ADInstruments.”

[5] = incubation with RyR2 inhibitor tetracaine

For `CCCCC/C=C\CC(O)C(O)CCCCCCCC(=O)O` (stereo not drawn) [9,10-diHOME], the diastolic function [1] was “no effect” and the systolic function [1] was “no effect”.

With `CCCCC/C=C\C=C\C(O)CCCCCCCC(=O)O` (stereo not drawn) [9-HODE] the diastolic function [1] was “no effect” and the systolic function [1] was “no effect”.

`CCCCCC(O)C(O)C/C=C\CCCCCCCC(=O)O` (stereo not drawn) [12,13-diHOME] was tested, and the diastolic function [1] was “improved”, the systolic function [1] was “improved” and the diastolic function (NOS1^−/− mice) was “no effect”. For the same compound, the systolic function (NOS1^−/− mice) was “no effect”, the “Ca2+ transient amplitude” value (isolated cardiomyocytes [2]) was “increase” and the “maximal velocity of relengthening (−dL/dt)” value (isolated cardiomyocytes [2]) was “greater”. For the same compound, the “maximal velocity of shortening (+dL/dt)” value (isolated cardiomyocytes [2]) was “greater”, the peak cardiomyocyte shortening (isolated cardiomyocytes [2]) was “increased” and the “Ca2+ transients” value (NOS1^−/− cardiomyocyte) was “no effect”. The “kinetics (maximal velocity of shortening and relengthening)” value (NOS1^−/− cardiomyocyte) was “no effect”, the peak shortening (NOS1^−/− cardiomyocyte) was “no effect” and the fatty acid uptake [3] was “significantly elevated”. The “basal oxygen consumption rates (OCR)” value (isolated cardiomyocytes [4]; 10 μM for 1 h, vs vehicle) was “increased”, the maximal respiratory capacity (isolated cardiomyocytes [4]; 10 μM for 1 h, vs vehicle) was “increased” and the non-mitochondrial respiration (isolated cardiomyocytes [4]; 10 μM for 1 h, vs vehicle) was “increased”. The “basal OCR” value (isolated cardiomyocytes [4]; in the presence or absence of RyR2 inhibitor tetracaine) was “increased”, the “effect of 12,13-diHOME on maximal respiration” value (isolated cardiomyocytes [4]; [5]) was “blunted” and the “effect of 12,13-diHOME on non-mitochondrial respiration” value (isolated cardiomyocytes [4]; [5]) was “blunted”. The “effect of 12,13-diHOME on basal OCR under myosin inhibition” value (isolated cardiomyocytes [4]; with myosin inhibitor BDM) was “did not prevent”, the “effect of 12,13-diHOME on maximal respiration under myosin inhibition” value (isolated cardiomyocytes [4]; with myosin inhibitor BDM) was “did not prevent” and the “effect of 12,13-diHOME on non-mitochondrial respiration under myosin inhibition” value (isolated cardiomyocytes [4]; with myosin inhibitor BDM) was “prevented the increase”. The “basal oxygen consumption rates (OCR)” value (NOS1^−/− cardiomyocytes) was “no effect”, the maximal respiratory capacity (NOS1^−/− cardiomyocytes) was “no effect” and the non-mitochondrial respiration (NOS1^−/− cardiomyocytes) was “no effect”.

With `O=C(O)CCCCCCCCCCCNC(=O)NC12CC3CC(CC(C3)C1)C2` [AUDA] the “cardiac function (systolic and diastolic) of +BAT vs Sham mice in the presence of sEH inhibitor” value (Sham or +BAT mice) was “no effect of +BAT to improve cardiac function”.

For `CCCCNc1ccc(C(=O)OCCN(C)C)cc1` [tetracaine, reference compound], the maximal respiration (isolated cardiomyocytes [4]; tetracaine 1 mM for 1 h, independent of 12,13-diHOME) was “decrease”.

Source: patent US20230279372A1, “METHODS TO CONTROL LIPOKINE CONCENTRATIONS AND USES THEREOF” (Ohio State Innovation Foundation, priority 2020, published 2023)
